pIC50: −log10 of the molar value.

Sequence of human Nav 1.8 (Q9Y5Y9 whole entry, looked up, the tested form may be a part): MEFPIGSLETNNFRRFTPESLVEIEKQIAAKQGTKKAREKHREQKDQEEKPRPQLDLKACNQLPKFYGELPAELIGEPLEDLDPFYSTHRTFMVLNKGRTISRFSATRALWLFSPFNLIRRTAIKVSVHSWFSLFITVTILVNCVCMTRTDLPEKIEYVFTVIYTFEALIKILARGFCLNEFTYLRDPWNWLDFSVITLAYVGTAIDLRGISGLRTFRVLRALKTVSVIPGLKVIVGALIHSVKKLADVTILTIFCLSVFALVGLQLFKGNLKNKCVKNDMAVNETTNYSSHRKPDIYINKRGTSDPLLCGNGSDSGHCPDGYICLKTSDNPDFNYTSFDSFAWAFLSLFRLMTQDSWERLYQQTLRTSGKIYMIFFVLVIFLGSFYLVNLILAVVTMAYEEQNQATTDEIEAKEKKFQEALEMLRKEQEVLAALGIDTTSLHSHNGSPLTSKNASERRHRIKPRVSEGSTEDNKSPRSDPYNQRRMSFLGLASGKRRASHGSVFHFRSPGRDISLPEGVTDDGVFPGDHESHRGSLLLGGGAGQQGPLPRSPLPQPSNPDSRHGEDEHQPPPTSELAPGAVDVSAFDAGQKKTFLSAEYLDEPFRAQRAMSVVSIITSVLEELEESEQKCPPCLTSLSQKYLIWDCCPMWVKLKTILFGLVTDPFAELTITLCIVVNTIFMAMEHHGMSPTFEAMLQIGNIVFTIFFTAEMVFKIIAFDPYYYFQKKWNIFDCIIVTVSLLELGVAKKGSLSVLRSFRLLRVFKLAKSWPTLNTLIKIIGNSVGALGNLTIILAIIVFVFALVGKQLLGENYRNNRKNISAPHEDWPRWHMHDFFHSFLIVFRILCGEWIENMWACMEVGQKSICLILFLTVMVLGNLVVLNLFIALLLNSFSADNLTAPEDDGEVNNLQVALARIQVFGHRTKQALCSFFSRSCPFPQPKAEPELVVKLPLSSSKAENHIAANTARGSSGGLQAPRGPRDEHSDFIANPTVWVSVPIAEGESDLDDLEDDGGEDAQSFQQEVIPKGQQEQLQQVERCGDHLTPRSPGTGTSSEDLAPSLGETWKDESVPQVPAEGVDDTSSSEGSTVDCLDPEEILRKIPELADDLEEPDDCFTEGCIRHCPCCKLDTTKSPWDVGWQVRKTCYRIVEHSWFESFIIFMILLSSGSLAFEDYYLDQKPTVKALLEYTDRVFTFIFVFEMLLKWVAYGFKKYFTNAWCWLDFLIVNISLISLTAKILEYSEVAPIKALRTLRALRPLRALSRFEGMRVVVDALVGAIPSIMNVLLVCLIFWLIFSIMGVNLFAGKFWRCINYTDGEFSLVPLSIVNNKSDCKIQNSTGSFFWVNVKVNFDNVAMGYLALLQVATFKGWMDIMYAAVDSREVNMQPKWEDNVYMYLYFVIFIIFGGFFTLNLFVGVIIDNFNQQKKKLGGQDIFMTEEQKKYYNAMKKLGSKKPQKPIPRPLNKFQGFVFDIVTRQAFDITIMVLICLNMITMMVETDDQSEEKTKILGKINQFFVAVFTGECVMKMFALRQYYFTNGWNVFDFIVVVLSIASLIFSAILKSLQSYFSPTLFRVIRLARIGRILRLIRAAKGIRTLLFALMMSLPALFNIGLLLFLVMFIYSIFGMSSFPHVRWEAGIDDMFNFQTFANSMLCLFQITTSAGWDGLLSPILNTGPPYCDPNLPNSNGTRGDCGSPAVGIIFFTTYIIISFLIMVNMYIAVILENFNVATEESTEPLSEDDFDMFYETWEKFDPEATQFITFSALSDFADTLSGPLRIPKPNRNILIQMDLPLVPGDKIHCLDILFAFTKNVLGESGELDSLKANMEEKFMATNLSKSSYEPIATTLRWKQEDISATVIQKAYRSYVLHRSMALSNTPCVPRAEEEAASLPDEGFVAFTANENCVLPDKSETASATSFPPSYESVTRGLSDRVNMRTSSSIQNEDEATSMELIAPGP

One experiment addresses human Nav 1.8 (Homo sapiens, UniProt Q9Y5Y9). As to the kind of experiment: E-VIPR assay detecting and measuring Nav inhibition (HEK cells expressing truncated human Nav 1.8). It is filed as cell-based. Particulars: in the Absence of Human Serum in the E-VIPR Assay; read-out: IC50. The text has this: Sodium ion channels are voltage-dependent proteins that can be activated by inducing membrane voltage changes by applying electric fields. The electrical stimulation instrument and methods of use, referred to as E-VIPR, are described in International Publication No. WO 2002/008748 A3 and C.-J. Huang et al. Characterization of voltage-gated sodium channel blockers by electrical stimulation and fluorescence detection of membrane potential, 24 Nature Biotech. 439-46 (2006), both of which are incorporated by reference in their entirety. The instrument comprises a microtiter plate handler, an optical system for exciting the coumarin dye while simultaneously recording the coumarin and oxonol emissions, a waveform generator, a current- or voltage-controlled amplifier, and parallel electrode pairs that are inserted into assay plate wells. Under integrated computer control, this instrument passes user-programmed electrical stimulus protocols to cells within the wells of the microtiter plate.
16-20 hours prior to running the assay on E-VIPR, HEK cells expressing a truncated form of human Nav 1.8 with full channel activity were seeded into microtiter 384-well plates, pre-coated with matrigel, at a density of 25,000 cells per well. 2.5-5% KIR2.1 Bacmam virus was added to the final cell suspension before seeding into cell plates. HEK cells were grown in Dulbecco's Modified Eagle's Medium (DMEM) supplemented with 10% FBS (Fetal Bovine Serum, qualified; Sigma #F4135), 1% NEAA (Non-Essential Amino Acids, Gibco #11140), 1% HEPES (Gibco #15630), 1% Pen-Strep (Penicillin-Streptomycin; Gibco #15140) and 5 μg/ml Blasticidin (Gibco #R210-01). Cells were expanded in vented cap cell culture flasks, with 90-95% humidity and 5% CO2.
Human Serum (HS, Millipore #S1P1-01KL, or Sigma SLBR5469V and SLBR5470V as a 50%/50% mixture, for 25% assay final concentration)
Bath1 Buffer: • Sodium Chloride 160 mM (9.35 g/L), Potassium Chloride, 4.5 mM (0.335 g/L), Glucose 10 mM (1.8 g/L), Magnesium Chloride (Anhydrous) 1 mM (0.095 g/L), Calcium Chloride 2 mM (0.222 g/L), HEPES 10 mM (2.38 g/L) in water.
Na/TMA Cl Bath1 Buffer: • Sodium Chloride 96 mM (5.61 g/L), Potassium Chloride 4.5 mM (0.335 g/L), Tetramethylammonium (TMA)-Cl 64 mM (7.01 g/L), Glucose 10 mM (1.8 g/L), Magnesium Chloride (Anhydrous) 1 mM (0.095 g/L), Calcium Chloride 2 mM (0.222 g/L) HEPES 10 mM (2.38 g/L) in water.
Hexyl Dye Solution (2× concentration): • Bath1 Buffer containing 0.5% β-cyclodextrin (made fresh prior to each use, Sigma #C4767), 8 μM CC2-DMPE and 2 μM DiSBAC6(3). The solution was made by adding 10% Pluronic F127 stock equal to combined volumes of CC2-DMPE and DiSBAC6(3). The order of preparation was first mix Pluronic and CC2-DMPE, then add DiSBAC6(3), then while vortexing add Bath1/β-Cyclodextrin.
Compound Loading Buffer (2×concentration): Na/TMA Cl Bath1 Buffer containing HS (omitted in experiments run in the absence of human serum (HS)) 50%, VABSC-1 1 mM, BSA 0.2 mg/ml (in Bath-1), KCl 9 mM, DMSO 0.75%.
Assay Protocol (7 Key Steps): • 1) To reach the final concentration in each well, 400 nL of each compound was pre-spotted (in neat DMSO) into polypropylene compound plates at 250×desired final concentration from an intermediate stock concentration of 0.075 mM, in an 11 point dose response, 3-fold dilution, resulting in a top dose of 300 nM final concentration in the cell plate. Vehicle control (neat DMSO), and positive control (an established Nav1.8 inhibitor, 25 μM final in assay in DMSO) were added manually to the outermost columns of each plate respectively. The compound plate was backfilled with 45 μL per well of Compound Loading Buffer resulting in a 250 fold dilution of compound following a 1:1 transfer of compound into the cell plate (see Step 6). Final DMSO concentration for all wells in the assay was 0.625% (0.75% DMSO was supplemented to the Compound Loading Buffer for a final DMSO concentration of 0.625%). […]
Consider `COc1c([C@H]2[C@H](C(=O)Nc3cc(F)nc(C(N)=O)c3)O[C@@](C)(C(F)(F)F)[C@H]2C)ccc(F)c1F` [Compound 127, 4-[[(2R,3S,4S,5R)-3-(3,4-difluoro-2-methoxy-phenyl)-4,5-dimcthyl-5-(trifluoromethyl)tetrahydrofuran-2-carbonyl]amino]-6-fluoro-pyridine-2-carboxamide], for which the negative logarithm of the IC50 (pIC50) was above 8.00. With `COc1c([C@H]2[C@H](C(=O)Nc3cc(C(N)=O)ncc3F)O[C@@](C)(C(F)(F)F)[C@H]2C)ccc(F)c1F` [Compound 122, 4-[[(2R,3S,4S,5R)-3-(3,4-difluoro-2-methoxy-phenyl)-4,5-dimethyl-5-(trifluoromethyl)tetrahydrofuran-2-carbonyl]amino]-5-fluoro-pyridine-2-carboxamide], the pIC50 was above 8.00.

Turning to `COc1c([C@H]2[C@H](C(=O)Nc3ccc(F)c(C(N)=O)c3)O[C@@](C)(C(F)(F)F)[C@H]2C)ccc(F)c1F` [Compound 123, (2R,3S,4S,5R)-N-(3-carbamoyl-4-fluoro-phenyl)-3-(3,4-difluoro-2-methoxy-phenyl)-4,5-dimethyl-5-(trifluoromethyl)tetrahydrofuran-2-carboxamide], the pIC50 was above 8.00. As to `COc1c([C@@H]2[C@@H](C(=O)Nc3ccnc(C(N)=O)c3)O[C@](C)(C(F)(F)F)[C@@H]2C)ccc(C(F)F)c1F` (single isomer, unassigned) [Compound 135], the pIC50 is below 6.00. The same measure, in the same setting: to `Cc1c([C@@H]2[C@@H](C(=O)Nc3ccnc(C(N)=O)c3)O[C@](C)(C(F)(F)F)[C@@H]2C)ccc(F)c1F` (stereo in doubt) [Compound 131, rel-(2S,3R,4R,5S)-4-[[3-(3,4-difluoro-2-methyl-phenyl)-4,5-dimethyl-5-(trifluoromethyl)tetrahydrofuran-2-carbonyl]amino]pyridine-2-carboxamide] belongs below 6.00.

The experiment is the same for the next values; noted with them: in the Presence of Human Serum in the E-VIPR Assay; read-out: IC50.
In the case of `C[C@@]1(C(F)(F)F)C[C@H](c2ccc(F)cc2OC(F)F)[C@@H](C(=O)Nc2ccnc(C(N)=O)c2)O1` [compound 73], the pIC50 is below 6.00. Regarding `C[C@H]1[C@@H](c2ccc(F)c(F)c2OC(F)F)[C@H](C(=O)Nc2cccc(C(N)=O)c2)O[C@@]1(C)C(F)(F)F` (single isomer, unassigned) [compound 52], the pIC50 was above 8.00.

As to `COc1c([C@@H]2[C@@H](C(=O)Nc3ccnc(C(N)=O)c3)OC(C)(C)[C@H]2C)ccc(F)c1F` (single isomer, unassigned) [Compound 104], the negative-log IC50 (pIC50) was below 6.00. `COc1c([C@@H]2C[C@](C)(CC(F)(F)F)O[C@H]2C(=O)Nc2ccnc(C(N)=O)c2)ccc(F)c1F` (single isomer, unassigned) [Compound 81]: the pIC50 is 6.00 to 7.00. Turning to `CNC(=O)c1cc(NC(=O)[C@@H]2O[C@](C)(C(F)(F)F)C[C@H]2c2ccc(F)c(Cl)c2OC)ccn1` (single isomer, unassigned) [Compound 59], the pIC50 was below 6.00. For `COc1c([C@H]2C[C@@](C)(C(F)(F)F)O[C@@H]2C(=O)Nc2ccnc(C(N)=O)c2)ccc(F)c1Cl` (relative stereo) [Compound 20, rel-(2S,3R,5S)-4-[[3-(3-chloro-4-fluoro-2-methoxy-phenyl)-5-methyl-5-(trifluoromethyl)tetrahydrofuran-2-carbonyl]amino]pyridine-2-carboxamide], the negative-log IC50 (pIC50) was below 6.00. As for `COc1c([C@@H]2[C@@H](C(=O)Nc3ccnc(C(N)=O)c3)OC(C)(C)[C@H]2C)ccc(F)c1F` (single isomer, unassigned) [Compound 101], the pIC50 is below 6.00. Take `COc1c([C@H]2C[C@](C)(C(C)(F)F)O[C@@H]2C(=O)Nc2ccnc(C(N)=O)c2)ccc(F)c1F` (single isomer, unassigned) [Compound 87]: the pIC50 was 6.00 to 7.00. Take `CCc1c(F)ccc([C@H]2C[C@@](C)(C(F)(F)F)O[C@@H]2C(=O)Nc2ccnc(C(N)=O)c2)c1OC` (single isomer, unassigned) [Compound 77]: the pIC50 was below 6.00. With `COc1c([C@@H]2C[C@H](C(F)(F)F)O[C@H]2C(=O)Nc2ccnc(C(N)=O)c2)ccc(F)c1F` (stereo in doubt) [Compound 110, rel-(2R,3S,5R)-4-[[3-(3,4-difluoro-2-methoxy-phenyl)-5-(trifluoromethyl)tetrahydrofuran-2-carbonyl]amino]pyridine-2-carboxamide], the pIC50 was 6.00 to 7.00. Turning to `Cc1c(F)ccc([C@@H]2[C@@H](C(=O)Nc3ccnc(C(N)=O)c3)O[C@](C)(C(F)(F)F)[C@@H]2C)c1OC(F)F` (stereo in doubt) [compound 53], the pIC50 is above 8.00. For `CC[C@H]1[C@@H](c2ccc(F)c(F)c2OC)[C@H](C(=O)Nc2ccnc(C(N)=O)c2)O[C@@]1(C)C(F)(F)F` (single isomer, unassigned) [Compound 93], the pIC50 is above 8.00. As for `C[C@H]1[C@@H](c2ccc(F)c(F)c2OC(F)F)[C@H](C(=O)Nc2ccc(F)c(C(N)=O)c2)O[C@@]1(C)C(F)(F)F` (single isomer, unassigned) [Compound 15], the pIC50 was above 8.00.

On to `COc1c([C@@H]2C[C@@](C)(C(F)(F)F)O[C@H]2C(=O)Nc2ccnc(C(N)=O)c2)ccc(F)c1Cl` [Compound 23, (2R,3S,5S)-4-[[3-(3-chloro-4-fluoro-2-methoxy-phenyl)-5-methyl-5-(trifluoromethyl)tetrahydrofuran-2-carbonyl]amino]pyridine-2-carboxamide], for which the pIC50 is 7.00 to 8.00.

In the case of `CCOc1c([C@H]2[C@H](C(=O)Nc3cc[n+]([O-])c(C(N)=O)c3)O[C@@](C)(C(F)(F)F)[C@H]2C)ccc(F)c1F` [Compound 55, (2R,3S,4S,5R)-4-[[3-(2-ethoxy-3,4-difluoro-phenyl)-4,5-dimethyl-5-(trifluoromethyl)tetrahydrofuran-2-carbonyl]amino]-1-oxido-pyridin-1-ium-2-carboxamide], the negative-log IC50 (pIC50) is above 8.00.

Regarding `COc1c([C@@H]2C[C@](C)(C(F)(F)F)O[C@H]2C(=O)Nc2cc[n+]([O-])c(C(N)=O)c2)ccc(F)c1F` (relative stereo) [Compound 54, rel-(2R,3S,5R)-4-[[3-(3,4-difluoro-2-methoxy-phenyl)-5-methyl-5-(trifluoromethyl)tetrahydrofuran-2-carbonyl]amino]-1-oxido-pyridin-1-ium-2-carboxamide], the pIC50 is 6.00 to 7.00. Consider `COc1c([C@H]2[C@@H](C)[C@@H](C)O[C@@H]2C(=O)Nc2ccnc(C(N)=O)c2)ccc(F)c1F` (stereo in doubt) [Compound 107, rel-(2S,3R,4R,5R)-4-[[3-(3,4-difluoro-2-methoxy-phenyl)-4,5-dimethyl-tetrahydrofuran-2-carbonyl]amino]pyridine-2-carboxamide], for which the pIC50 is below 6.00. Take `C[C@H]1[C@@H](c2ccc(F)c(F)c2OC(F)F)[C@H](C(=O)Nc2cc[n+]([O-])c(C(N)=O)c2)O[C@@]1(C)C(F)(F)F` [Compound 18, (2R,3S,4S,5R)-4-[[3-[2-(difluoromethoxy)-3,4-difluoro-phenyl]-4,5-dimethyl-5-(trifluoromethyl)tetrahydrofuran-2-carbonyl]amino]-1-oxido-pyridin-1-ium-2-carboxamide]: the pIC50 was above 8.00. For `COc1c([C@@H]2[C@@H](C)C(C)(C)O[C@H]2C(=O)Nc2ccnc(C(N)=O)c2)ccc(F)c1F` (single isomer, unassigned) [Compound 102], the pIC50 was below 6.00.

A word on the pIC50: it is −log10 of the IC50, conventionally taken in molar units.
